# “And” between values parts separate entries of the source, which are not always exact repeats. Identical values can stand only once. Like-named read-outs stand apart in the source and are kept apart here. Marks after values point to notes of the source that are not given here.
# Key:
# [1] = target: T1, human Serotonin 5-HT7A receptor (Homo sapiens, UniProt P34969); experiment: Radioligand binding competition, filtration binding assay, 5-HT7A; conditions: for Ki: CHO-K1 membranes
# T1 construct: expressed in transfected cells; host or cells: CHO-K1
# Procedure: Radioligand binding experiments are conducted with membrane preparations.
# [2] = target: T2, human Serotonin 5-HT1A receptor (Homo sapiens, UniProt P08908); experiment: cAMP HTRF assay, agonist mode, 5-HT1A; format: cell-based; conditions: % of reference agonist at EC100, average where marked d
# T2 sequence (P08908 1-422): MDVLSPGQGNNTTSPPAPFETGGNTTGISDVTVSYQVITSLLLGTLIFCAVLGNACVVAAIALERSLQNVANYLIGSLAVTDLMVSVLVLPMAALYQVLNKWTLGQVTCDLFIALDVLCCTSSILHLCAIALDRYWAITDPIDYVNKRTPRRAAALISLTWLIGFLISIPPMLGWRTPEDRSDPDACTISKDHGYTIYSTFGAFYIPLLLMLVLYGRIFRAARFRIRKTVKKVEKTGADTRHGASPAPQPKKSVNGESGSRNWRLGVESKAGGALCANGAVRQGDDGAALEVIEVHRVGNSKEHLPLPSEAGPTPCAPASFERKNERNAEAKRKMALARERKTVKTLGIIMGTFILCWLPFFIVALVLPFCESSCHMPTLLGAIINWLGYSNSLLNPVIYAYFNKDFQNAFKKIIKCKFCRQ
# Procedure: (§1) SPA ^35S-GTPgS experiments are conducted with membrane preparations. IP-One and cAMP HTRF assays are conducted with recombinant cell lines.
# (§2) Agonist activity of test compounds is expressed as a percentage of the activity of the reference agonist at its EC100 concentration. Antagonist activity of the test compound is expressed as a percentage of the inhibition of reference agonist activity at its EC80 concentration.
# [3] = target: human Dopamine D3 receptor (Homo sapiens, UniProt P35462); conditions: GTPγS; average where marked d
# Procedure: as §1, §2
# [4] = target: T3, human Serotonin 5-HT2A receptor (Homo sapiens, UniProt P28223); experiment: IPOne HTRF assay, agonist mode, 5-HT2A; format: cell-based; conditions: for Top % Activation at maximal concentration, 5-HT2A (agonist mode): % of reference agonist at EC100, average where marked d
# T3 construct: expressed in transfected cells; host or cells: CHO-K1
# Procedure: as §1, §2
# [5] = target: T3, human Serotonin 5-HT2A receptor; experiment: IPOne HTRF assay, antagonist mode, 5-HT2A; format: cell-based; conditions: IP-one
# Procedure: IP-One and cAMP HTRF assays are conducted with recombinant cell lines.
# as §2
# [6] = test system: Adult male Sprague Dawley rats; experiment: DOI-induced headshake response; format: in vivo, rat
# Procedure: Example 10—DOI-Induced Headshake Response
# Adult male Sprague Dawley rats are used. […] DOI (3 mg/kg) is dissolved in saline and administered IP at a dose volume of 1 ml/kg (10 minutes prior to test). Ketanserin (1 mg/kg) is dissolved in saline and injected IP 30 minutes prior to DOI at a dose volume of […].
# Rats are then injected with DOI and headshakes are recorded 10 minutes after DOI injection for 10 minutes using video cameras. The headshake response is a rapid, rhythmic shaking of the head in a radial motion. Data is analyzed by ANOVA followed by post hoc analysis where appropriate.
# [7] = test system: Adult male Sprague Dawley rats; experiment: Headshake response; format: in vivo, rat
# Procedure: Example 9—Headshake Response
# Adult male Sprague Dawley rats are used. […] DOI (3 mg/kg) is dissolved in saline and administered IP at a dose volume of 1 ml/kg (10 minutes prior to test).
# The headshake response is a rapid, rhythmic shaking of the head in a radial motion. Data are analyzed by ANOVA followed by post hoc analysis where appropriate.
# Male Sprague Dawley rats = experiment: Touchscreen-based rat Probabilistic Reward Task; format: in vivo; conditions: 1 mg/kg orally, 4-5 hr prior to session
# Source text: Example 7—Touchscreen-Based Rat Probabilistic Reward Task
# The Probabilistic Reward Task (PRT) uses visual discrimination methodology to quantify reward responsiveness to both identify deficits and characterize drug-induced improvements. Groups of rats are trained on the touchscreen-based PRT and exposed to asymmetrical probabilistic contingencies to generate response biases to the richly rewarded stimulus (Pizzagalli, D. et al., Biological Psychiatry, 2005, 57, 319-327; Kangas, B. et al., Translational Psychiatry, 2020, 10(1):285; Wooldridge, L. et al., International Journal of Neuropsychopharmacology, 2021, 24, 409-418).
# Male Sprague Dawley rats are used in the present study.
# Briefly, a custom-built Plexiglas chamber (25×30×35 cm) is situated in a sound- and light-attenuating enclosure (40×60×45 cm). A 17″ touch-sensitive screen (1739L, ELO TouchSystems, Menlo Park, CA) comprises the inside right-hand wall of the enclosure. An infusion pump (PHM-100-5, Med Associates, St. Albans, VT) outside the enclosure is used to deliver sweetened condensed milk solution into the shallow reservoir of a custom-designed aluminum receptacle. […]
# Following line-length discrimination training, probabilistic reinforcement schedules are introduced. […] These probabilistic contingencies are assessed across 5 consecutive sessions prior to initiation of drug testing.
# [8] = target: human Dopamine D2S receptor (Homo sapiens, UniProt P14416)
# Procedure: as §1, §2
# [9] = target: T4, human Dopamine D4.4 receptor (Homo sapiens, UniProt P21917); conditions: cAMP; average where marked d
# T4 sequence (P21917 1-419): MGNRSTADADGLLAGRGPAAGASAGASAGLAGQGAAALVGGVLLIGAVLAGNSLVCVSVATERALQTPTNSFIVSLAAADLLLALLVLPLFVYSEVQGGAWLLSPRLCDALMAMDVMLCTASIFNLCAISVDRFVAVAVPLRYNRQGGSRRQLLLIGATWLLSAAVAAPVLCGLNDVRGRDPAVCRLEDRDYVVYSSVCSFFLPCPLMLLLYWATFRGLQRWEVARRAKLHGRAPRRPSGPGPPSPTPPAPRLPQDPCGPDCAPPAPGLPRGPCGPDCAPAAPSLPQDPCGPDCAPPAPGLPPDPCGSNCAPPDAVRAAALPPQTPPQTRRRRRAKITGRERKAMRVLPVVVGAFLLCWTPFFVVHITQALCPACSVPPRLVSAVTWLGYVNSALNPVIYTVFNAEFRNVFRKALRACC
# Procedure: as §1, §2
# [10] = In vitro metabolism, disappearance in pooled cryopreserved human hepatocytes; format: in vitro ADME; conditions: 5 μM; for Disappearance without cells (buffer), 0 min, % / Disappearance without cells (buffer), 60 min, % / Disappearance without cells (buffer), 120 min, %: no cell control / buffer; for Disappearance in human hepatocytes, 0 min, % / Disappearance in human hepatocytes, 60 min, % / Disappearance in human hepatocytes, 120 min, %: with cells
# Procedure: Study compounds are investigated in pooled cryopreserved human (mixed gender) hepatocytes. The incubations are performed using 5 μM initial concentration and sampling at 0, 60, and 120 minute time points. The samples are analyzed using UPLC-QE-orbitrap-MS. Incubation volume: 300 μl in 48-well plate. Number of cells: 1 million viable cells/ml. Test compound: 5 μM (stock solution in DMSO). Incubation medium: pH 7.4, Bioreclamation IVT in vitro KHB medium. Shaking: 600 rpm. Time points: 0, 60, and 120 minutes with and without cells. Temperature: 37° C. Sampling volume: 60 μl. DMSO content in incubation: 0.5%. […] Control: verapamil disappearance rate.
# Sample preparation for hepatocyte samples: Samples are centrifuged for 20 min at 2272×g at room temperature and pipetted to a UPLC-plate for analysis.
# Adult male Wistar rats = experiment: Conditioned Avoidance Response test; format: in vivo, rat
# Source text: Adult male Wistar rats are used.
# The Conditioned Avoidance Response (CAR) Test is an animal model screening for antipsychotic drugs.
# [11] = target: T1, human Serotonin 5-HT7A receptor; experiment: cAMP HTRF assay, antagonist mode, 5-HT7A; format: cell-based
# [12] = target: T3, human Serotonin 5-HT2A receptor; experiment: Radioligand binding competition, filtration binding assay, 5-HT2A (labeled ketanserin)
# [13] = [3H]-LSD, average where marked c, read-out: Binding 5-HT7A IC50
# [14] = numbers in parentheses that were averaged, read-out: Binding 5-HT7A IC50, single determinations
# [15] = 2.5 and 5 mg/kg orally, 4 hours prior to test
# [16] = 0.5 mg/kg i.p., 30 minutes prior to test
# T3 sequence (P28223 whole entry): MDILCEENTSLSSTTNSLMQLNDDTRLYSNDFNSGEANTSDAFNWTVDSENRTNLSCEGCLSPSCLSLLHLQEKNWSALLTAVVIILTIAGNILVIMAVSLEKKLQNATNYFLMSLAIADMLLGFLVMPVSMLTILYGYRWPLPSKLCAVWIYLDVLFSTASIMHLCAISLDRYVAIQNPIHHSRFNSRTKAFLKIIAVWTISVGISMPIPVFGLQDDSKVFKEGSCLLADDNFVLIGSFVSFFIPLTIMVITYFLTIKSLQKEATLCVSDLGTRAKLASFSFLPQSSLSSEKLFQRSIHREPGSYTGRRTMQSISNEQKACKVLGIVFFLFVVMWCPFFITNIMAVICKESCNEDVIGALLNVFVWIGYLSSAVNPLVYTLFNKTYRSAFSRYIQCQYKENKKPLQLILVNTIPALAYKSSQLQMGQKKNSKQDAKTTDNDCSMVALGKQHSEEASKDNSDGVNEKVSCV
# T1 sequence (P34969 1-445 isoform P34969-2): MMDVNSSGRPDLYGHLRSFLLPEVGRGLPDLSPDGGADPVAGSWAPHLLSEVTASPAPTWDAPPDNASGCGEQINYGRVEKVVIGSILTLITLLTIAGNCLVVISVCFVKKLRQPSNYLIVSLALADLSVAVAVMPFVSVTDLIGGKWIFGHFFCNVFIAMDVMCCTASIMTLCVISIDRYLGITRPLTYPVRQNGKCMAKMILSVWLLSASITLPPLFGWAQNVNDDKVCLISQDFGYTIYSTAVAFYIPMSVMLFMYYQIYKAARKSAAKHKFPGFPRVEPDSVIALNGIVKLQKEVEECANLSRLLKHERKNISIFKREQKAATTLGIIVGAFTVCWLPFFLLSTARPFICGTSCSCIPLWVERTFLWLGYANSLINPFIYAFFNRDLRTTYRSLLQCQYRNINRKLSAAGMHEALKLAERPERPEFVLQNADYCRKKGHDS
# human Dopamine D3 receptor, sequence (P35462 whole entry): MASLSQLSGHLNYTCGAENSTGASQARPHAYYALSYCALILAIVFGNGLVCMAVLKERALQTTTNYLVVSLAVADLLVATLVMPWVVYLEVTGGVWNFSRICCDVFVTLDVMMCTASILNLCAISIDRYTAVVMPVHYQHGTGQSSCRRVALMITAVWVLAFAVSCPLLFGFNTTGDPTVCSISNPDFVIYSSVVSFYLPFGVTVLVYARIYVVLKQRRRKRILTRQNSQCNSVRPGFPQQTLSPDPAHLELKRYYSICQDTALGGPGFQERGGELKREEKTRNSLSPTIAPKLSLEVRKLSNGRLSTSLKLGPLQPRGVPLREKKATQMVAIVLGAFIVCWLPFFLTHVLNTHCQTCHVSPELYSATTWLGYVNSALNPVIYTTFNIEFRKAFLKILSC
# human Dopamine D2S receptor, sequence (P14416 1-414 isoform P14416-2): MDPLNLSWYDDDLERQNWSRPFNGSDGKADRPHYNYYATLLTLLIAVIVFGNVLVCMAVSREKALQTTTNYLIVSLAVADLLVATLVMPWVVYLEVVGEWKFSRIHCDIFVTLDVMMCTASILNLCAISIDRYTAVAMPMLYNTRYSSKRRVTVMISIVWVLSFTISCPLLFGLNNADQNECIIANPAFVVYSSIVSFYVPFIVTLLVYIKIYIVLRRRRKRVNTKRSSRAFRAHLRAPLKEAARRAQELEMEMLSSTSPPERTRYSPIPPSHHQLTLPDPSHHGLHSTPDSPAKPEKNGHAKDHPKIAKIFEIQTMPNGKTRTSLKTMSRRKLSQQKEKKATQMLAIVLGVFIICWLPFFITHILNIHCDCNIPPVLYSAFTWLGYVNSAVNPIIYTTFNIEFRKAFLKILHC
compound,measurement,setting,value
"CNc1cc(OC)c(C(=O)N[C@H]2CCN(Cc3ccccc3)[C@H]2C)cc1Cl (racemic) [Nemonapride, (±)-cis-N-(1-Benzyl-2-methylpyrrolidin-3-yl)-5-chloro-2-methoxy-4-methylaminobenzamide]",Ki,[1]; [3H]-LSD,53.2 nM
same,IC50,[1]; [13],75.7 nM
same,"Top % Activation at maximal concentration, 5-HT1A (agonist mode)",[2],52%
same,"Top % Inhibition at maximal concentration, D3 (antagonist mode)",[3],126%
same,"Top % Activation at maximal concentration, 5-HT2A (agonist mode)",[4]; IP-one,48%
same,"Top % Inhibition at maximal concentration, 5-HT2A (antagonist mode)",[5],33%
"COc1cc(CC(C)N)c(OC)cc1I (stereo not drawn) [DOI, reference compound]",Number of headshakes compared to vehicle,"[6]; DOI 3 mg/kg IP, 10 minutes prior to test",significantly increases the number of headshakes
same,Number of headshakes compared to vehicle,"[7]; 3 mg/kg i.p., 10 minutes prior to test",significantly increases headshake responses
"[2H]C([2H])([2H])Nc1cc(OC)c(C(=O)N[C@@H]2CCN(C([2H])([2H])c3ccccc3)[C@@H]2C)cc1Cl [Example 1, 5-Chloro-N-((2R,3R)-1-(dideutero(phenyl)methyl)-2-methylpyrrolidin-3-yl)-2-methoxy-4-(trideuteromethylamino)benzamide]",Ki,[1]; [3H]-LSD,82.6 nM
same,IC50,[1]; [13],131 nM
same,IC50,[1]; [14],143 nM and 118 nM
same,Reward response bias (log b),Male Sprague Dawley rats,enhances reward response bias (log b) significantly
same,"Top % Activation at maximal concentration, 5-HT1A (agonist mode)",[2],64^d %
same,"Top % Inhibition, D2S (antagonist mode), single determinations",[8],93) %
same,"Top % Inhibition, D2S (antagonist mode), single determinations","[8]; cAMP, numbers in parentheses that were averaged","(104, %"
same,"Top % Inhibition at maximal concentration, D4 (antagonist mode)",[9],100^d %
same,"Top % Inhibition at maximal concentration, D3 (antagonist mode)",[3],122^d %
same,DOI-induced headshake responses,"[6]; 1, 5 and 10 mg/kg PO, 4 hours prior, DOI 3 mg/kg IP",significantly attenuate DOI-induced headshake responses
same,"Top % Activation at maximal concentration, 5-HT2A (agonist mode)",[4]; IP-one,69^d %
same,"Top % Activation, 5-HT2A (agonist mode), single determinations","[4]; IP-one, numbers in parentheses that were averaged, listed as Ex. 1 (A2)",53% and 82% and 68% and 72%
same,5-HT2A agonism (in words),[4]; compared with non-deuterated analog / summary of Tables 4 and 5,5-HT2A partial agonist and higher 5-HT2A agonism
same,Number of headshakes compared to vehicle,"[7]; 1, 5 and 10 mg/kg PO, 4 hours prior to test",no significant increase
same,"Disappearance without cells (buffer), 0 min, %",[10],100%
same,"Disappearance without cells (buffer), 60 min, %",[10],91%
same,"Disappearance without cells (buffer), 120 min, %",[10],92%
same,"Disappearance in human hepatocytes, 0 min, %",[10],100%
same,"Disappearance in human hepatocytes, 60 min, %",[10],8%
same,"Disappearance in human hepatocytes, 120 min, %",[10],1%
same,Escape failures compared to vehicle,"Adult male Wistar rats; 0.5, 2.5 and 5 mg/kg orally, 4 hours prior to test",None of the doses of the deuterated compound of Example 1 (A2) have a significant treatment effect
same,Number of avoidance responses compared to vehicle,Adult male Wistar rats; [15],significantly decrease
same,Percent avoidance compared to vehicle,Adult male Wistar rats; [15],significantly decrease
same,IC50,[11],> 3000 nM
O=C(c1ccc(F)cc1)C1CCN(CCn2c(=O)[nH]c3ccccc3c2=O)CC1 [Ketanserin],DOI-induced headshake responses,"[6]; 1 mg/kg IP, 30 minutes prior to DOI 3 mg/kg IP",significantly attenuate DOI-induced headshake responses
CCN1CCC[C@@H]1CNC(=O)c1c(OC)ccc(Br)c1OC [R-remoxipride],Binding to the 5-HT2A receptor in vitro (in words),[12],do not even bind
CCN1CCC[C@H]1CNC(=O)c1c(OC)ccc(Br)c1OC [S-remoxipride],Binding to the 5-HT2A receptor in vitro (in words),[12],do not even bind
"CNc1cc(OC)c(C(=O)N[C@@H]2CCN(Cc3ccccc3)[C@@H]2C)cc1Cl [cis (R,R) nemonapride, N-[(2R,3R)-1-benzyl-2-methylpyrrolidin-3-yl]-5-chloro-2-methoxy-4-(methylamino)benzamide, reference compound]",Ki,[1]; [3H]-LSD,102 nM
same,IC50,[1]; [13],129 nM
same,IC50,[1]; [14],112 nM and 145 nM
same,"Top % Activation at maximal concentration, 5-HT1A (agonist mode)",[2],78^d %
same,"Top % Inhibition at maximal concentration, D4 (antagonist mode)",[9],111^d %
same,"Top % Inhibition at maximal concentration, D3 (antagonist mode)",[3],99^d %
same,"Top % Activation at maximal concentration, 5-HT2A (agonist mode)",[4]; IP-one,44^d %
same,"Disappearance without cells (buffer), 0 min, %",[10],100%
same,"Disappearance without cells (buffer), 60 min, %",[10],96%
same,"Disappearance without cells (buffer), 120 min, %",[10],99%
same,"Disappearance in human hepatocytes, 0 min, %",[10],100%
same,"Disappearance in human hepatocytes, 60 min, %",[10],10%
same,"Disappearance in human hepatocytes, 120 min, %",[10],2%
same,IC50,[11],2470 nM
"Cc1nc2n(c(=O)c1CCN1CCC(c3noc4cc(F)ccc34)CC1)CCCC2 [risperidone, reference compound]",Number of avoidance responses compared to vehicle,Adult male Wistar rats; [16],significantly decrease
same,Percent avoidance compared to vehicle,Adult male Wistar rats; [16],significantly decrease

# Reference: US20250091990A1, “DEUTERATED ORGANIC COMPOUNDS AND USES THEREOF” (ENGRAIL THERAPEUTICS, INC., priority 2022, published 2025)
